# Tested on: isolated adult cardiomyocytes
# Assay: Cardiomyocyte contractility and calcium transient, video-based edge-detection system (IonOptix)
# Type: cell-based, Sprague–Dawley rats
# Procedure: Figure 1 N106 increases SERCA2a’s cellular activity and SUMOylation in adult cardiomyocytes. In-vitro characterization of activators of SERCA2a SUMOylation. Cell-based screening of small molecules identified one promising compound. Adult ventricular cardiomyocytes were isolated from Sprague–Dawley rats and treated with small molecules on dose-dependent manner for 24 h. DMSO-treated cardiomyocytes were used as a negative control. (a) Chemical structure of SERCA2a SUMOylation activator. N106, N-(4-methoxybenzo[d]thiazol-2-yl)-5-(4-methoxyphenyl)-1,3,4-oxadiazol-2-amine. (b-g) The effects of N106 compound in cardiomyocyte contractility and calcium transient. The dose-dependent effects of N106 compound presented on peak shortening, the time to maximal departure velocity, the time to maximal return velocity, calcium ratio, decay time constant (τ) and the time to 90% baseline (t90) fluorescence in cardiomyocytes were assessed using a video-based edge-detection system (IonOptix Inc.). n=25 cardiomyocytes from each three of hearts per condition. (h) The effects of N106 compound on the ATPase activity of SERCA2a. The ATPase activity were measured at 25 °C in 50 mM MOPS, 100 mM KCl, 5 mM MgCl2, 1 mM […] at pCa 5.0 by using a coupled enzyme system consisting of pyruvate kinase and lactate dehydrogenase, and monitoring the oxidation of the reduced form of NADH at […]. The enzyme activity was determined by using same set of cardiomyocytes. (i) The effect of N106 compound for the formation of SUMOylated SERCA2a was determined using the same set of cardiomyocytes. Endogenous SERCA2a SUMOylation was detected by immunoprecipitation with anti-SERCA2a and then western blotting with anti-SUMO-1 antibodies. The experiments shown are representative of three independent experiments with similar results. (j) The effect of N106 compound on global SUMOylation was measured by western blot analysis with an anti-SUMO-1 antibody in the same set of cardiomyocytes. The experiments shown are representative of three independent western blottings. Data are represented as mean±s.e.m. (n=3 mice hearts per each condition). Data are represented as mean±s.e.m. *P≤0.05; **P<0.001 (Student’s t-test) from DMSO control.
# Figure 2 Time-course experiments with N106 in isolated adult cardiomyocytes. (a–f) Adult ventricular cardiomyocytes were isolated from Sprague–Dawley rats and treated with 10 μM of N106 compound over a time course as indicated. The time course of the contractile response to N106 was determined as peak shortening (a), the time to maximal velocity of sarcomere shortening (b) and re-lengthening (c). The time-course changes in calcium kinetic parameters such as calcium transient (d), decay time constant (e) and the time to 90% baseline fluorescence in cardiomyocytes (f) were detected. n=25 cardiomyocytes from each three of hearts per condition. DMSO was used as vehicle control. The time courses of the ATPase activity of SERCA2a (g), level of SUMOylated SERCA2a (h) and level of SUMO-1 conjugates (i) were determined by using the same set of cardiomyocytes (two independent experiments). Data are represented as mean±s.e.m. *P≤0.05; **P<0.001 (Student’s t-test) from DMSO control.
# Ventricular heart muscle cells were isolated from 180∼250 g male Sprague–Dawley rats as described. The hearts were perfused sequentially with low-calcium buffer, enzyme solutions containing collagenases and proteases, and high-potassium solution. Next, the hearts were minced, filtered and resuspended in high-potassium solution. The cardiomyocytes were plated on laminin-coated plates and cultured in medium M199 (Life Technologies, CT, USA) containing proper supplements. […]
# [1] = screen of eight compounds, 10 μM, 24 h
compound,measurement,setting,value
"COc1ccc(-c2nnc(Nc3nc4c(OC)cccc4s3)o2)cc1 [Compound N106, N-(4-methoxybenzo[d]thiazol-2-yl)-5-(4-methoxyphenyl)-1,3,4-oxadiazol-2-amine]",inotropic effect in isolated cardiomyocytes,"10 μM, 24 h",positive inotropic effects
same,positive effect on cardiomyocytes contractility,at over 50 μM concentration,no longer observed
same,Calcium-transient amplitude,"dose–response, 10 nM, 24 h",0.18±0.01
same,"exponential decay of time constant, τ","dose–response, 10 nM, 24 h",0.20 ± 0.01 s
same,maximal velocities of cell contraction,"dose–response, 10 nM, 24 h",−1.93±0.08 μm s^−1
same,maximal velocities of cell relaxation,"dose–response, 10 nM, 24 h",1.76±0.08 μm s^−1
same,peak shortening,"dose–response, 10 nM, 24 h",7.63±0.48%
same,"time for 90% decay, t90","dose–response, 10 nM, 24 h",0.47 ± 0.02 s
same,Calcium-transient amplitude,"dose–response, 100 nM, 24 h",0.21±0.01
same,"exponential decay of time constant, τ","dose–response, 100 nM, 24 h",0.20 ± 0.01 s
same,maximal velocities of cell contraction,"dose–response, 100 nM, 24 h",−2.17±0.10 μm s^−1
same,maximal velocities of cell relaxation,"dose–response, 100 nM, 24 h",1.98±0.12 μm s^−1
same,peak shortening,"dose–response, 100 nM, 24 h",8.36±0.56%
same,"time for 90% decay, t90","dose–response, 100 nM, 24 h",0.44 ± 0.02 s
same,Calcium-transient amplitude,"dose–response, 10 μM, 24 h",0.19±0.00
same,"exponential decay of time constant, τ","dose–response, 10 μM, 24 h",0.16 ± 0.008 s
same,maximal velocities of cell contraction,"dose–response, 10 μM, 24 h",−2.30±0.19 μm s^−1
same,maximal velocities of cell relaxation,"dose–response, 10 μM, 24 h",1.99±0.15 μm s^−1
same,peak shortening,"dose–response, 10 μM, 24 h",9.10±0.52%
same,"time for 90% decay, t90","dose–response, 10 μM, 24 h",0.35 ± 0.006 s
same,peak shortening,[1],12.03±0.80%
same,transient calcium decay τ,[1],0.18 ± 0.02 s
same,calcium amplitude (ratio 360/380 nm),"time course, 10 μM, 10 min",0.19±0.01
same,maximal velocities of cell contraction,"time course, 10 μM, 10 min",−1.97±0.04 μm s^−1
same,maximal velocities of cell relaxation,"time course, 10 μM, 10 min",1.12±0.11 μm s^−1
same,peak shortening,"time course, 10 μM, 10 min",9.65±0.27%
same,t90,"time course, 10 μM, 10 min",0.40 ± 0.03 s
same,τ,"time course, 10 μM, 10 min",0.17 ± 0.02 s
same,maximal velocities of cell contraction,"time course, 10 μM, 1 h",−1.92±0.09 μm s^−1
same,maximal velocities of cell relaxation,"time course, 10 μM, 1 h",1.67±0.15 μm s^−1
same,peak shortening,"time course, 10 μM, 1 h",8.60±0.23%
same,t90,"time course, 10 μM, 1 h",0.35 ± 0.01 s
same,τ,"time course, 10 μM, 1 h",0.14 ± 0.02 s
same,calcium amplitude (ratio 360/380 nm),"time course, 10 μM, 1 h (P=0.17)",0.17±0.01
same,calcium amplitude (ratio 360/380 nm),"time course, 10 μM, 24 h",0.18±0.008
same,maximal velocities of cell contraction,"time course, 10 μM, 24 h",−2.3±0.19 μm s^−1
same,maximal velocities of cell relaxation,"time course, 10 μM, 24 h",1.99±0.15 μm s^−1
same,peak shortening,"time course, 10 μM, 24 h",8.90±0.38%
same,t90,"time course, 10 μM, 24 h",0.35 ± 0.006 s
same,τ,"time course, 10 μM, 24 h",0.16 ± 0.008 s
